Results reported in US20210206817A1, “Metabolically Stable Apelin Analogs in the Treatment of Disease Mediated by the Apelin Receptor” (priority 2014, published 2021).
Like-named read-outs stand apart in the source and are kept apart here. Where a SMILES comes first, the peptide text is derived from it.

What was measured:
[1] = tested on: rat aortic rings precontracted by noradrenaline (NA); assay: Isometric tension of aortic rings precontracted by noradrenaline; conditions: precontraction 3×10^−6 M NA
Procedure: The experiments were performed in rat aortic rings as previously described (39). […] The aortas were cleaned of excess connective tissue and fat and cut into rings of approximately 3-4 mm in length. Special care was taken to avoid damaging the luminal surface of the endothelium. […] One end of the aortic ring was connected to a tissue holder and the other to an isometric force transducer (EMKA Technologies, Paris, France). […] During equilibration period, the rings were washed every 30 min. Then, a first relaxation to acetylcholine (Ach, 10^−4 mol/L) was implemented to check the integrity or the absence of the endothelium in rings precontracted with NA (3×10^−8 mol/L). After rinsing with PSS to baseline tension, rings were equilibrated for 90 min. […] Each concentration of the drug was added at the maximal effect of the precedent concentration. The concentration-response curves were continuously recorded on a PC by means of IOX v 2.4 (EMKA Technologies, Paris) for further analysis (Datanalyst v2.1, EMKA Technologies, Paris).

rat apelin receptor-EGFP [2] = target: T1, rat apelin receptor-EGFP (Rattus norvegicus, UniProt Q9JHG3); assay: [125I]pE13F radioligand binding on CHO membrane preparations
T1 construct: expressed in transfected cells
T1 sequence (Q9JHG3 1-377): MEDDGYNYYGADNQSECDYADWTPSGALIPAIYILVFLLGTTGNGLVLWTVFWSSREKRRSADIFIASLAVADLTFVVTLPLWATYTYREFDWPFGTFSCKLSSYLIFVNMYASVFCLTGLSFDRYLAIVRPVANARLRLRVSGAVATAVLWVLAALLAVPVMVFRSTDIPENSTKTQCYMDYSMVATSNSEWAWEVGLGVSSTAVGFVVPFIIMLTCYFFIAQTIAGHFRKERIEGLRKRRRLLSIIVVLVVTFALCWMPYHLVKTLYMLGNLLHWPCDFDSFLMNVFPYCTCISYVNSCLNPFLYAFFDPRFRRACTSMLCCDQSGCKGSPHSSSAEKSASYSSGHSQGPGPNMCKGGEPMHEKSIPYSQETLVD
Procedure: Crude membrane preparation from CHO stably expressing the wild-type rat apelin receptor-EGFP, were prepared as previously described (39). […] The reaction was stopped by adding ice-cold binding buffer and filtered through glass microfiber filters (Whatman GF/C filters). Radioactivity was counted in Wizard 1470 Wallac gamma counter (Perkin Elmer, Turku, Finland).

rat apelin receptor-EGFP [3] = target: T1, rat apelin receptor-EGFP; assay: Inhibition of forskolin-induced cAMP production (HTRF); type: cell-based
rat apelin receptor-EGFP [4] = target: T1, rat apelin receptor-EGFP; assay: Apelin receptor-EGFP internalization, confocal microscopy; type: cell-based; conditions: 1 μM, 20 min
Procedure: The internalization assay was performed as described previously with CHO cells stably expressing the rat apelin receptor-EGFP (43). […] Cells were then mounted in Aquapolymount (Polysciences, Warrington, Pa., USA) for confocal microscopic analysis (Sec (42) for details).

in vitro = conditions: mouse, plasma, 4 h
Procedure: For each compound, the stock solution (100 μM in water) was diluted in plasma to a final incubation concentration of 5 μM. The incubation at 37° C. was stopped respectively at to and 4 h by adding one volume of ice cold acetonitrile containing 0.1% trifluoroacetic acid. The sample was vortexed for 1 min and then centrifuged at 4° C. before LC-MS injection of the supernatant. Analyses were performed on a Kinetex RP-C18 column (2.6 μm, 100 Å, 50×4.6 mm) using a linear gradient (solvent B in solvent A, solvent A: water/0.05% TFA; solvent B: acetonitrile; flow rate of 2 mL·min^−1: detection at 358 nm). The percentage of remaining test compound relative to t0 was measured by monitoring the peak area of the chromatogram.

[5] = competition with [125I]pE13F, CHO membranes, read-out: Ki for the apelin receptor (affinity)
[6] = Table 3, read-out: Ki nM ± SEM (15.11.2013)
[7] = Table 3, read-out: IC50 cAMP inhibition
[8] = 10^−6 M forskolin, read-out: IC50 inhibition of forskolin-induced cAMP production

Ki (rat apelin receptor-EGFP [2]; [5]) [nM] | IC50 (rat apelin receptor-EGFP [3]; [8]) [nM] | SMILES | induction of apelin receptor internalization (rat apelin receptor-EGFP [4]) | Ki (rat apelin receptor-EGFP [2]; [6]) [nM] | IC50 (rat apelin receptor-EGFP [3]; [7]) [nM] | also measured
0.06 ± 0.02 | 0.1 ± 0.05 | CSCC[C@H](NC(=O)[C@@H]1CCCN1C(=O)CNC(=O)[C@H](CCCCN)NC(=O)[C@H](Cc1c[nH]cn1)NC(=O)[C@H](CO)NC(=O)[C@H](CC(C)C)NC(=O)[C@H](CCCNC(=N)N)NC(=O)[C@@H]1CCCN1C(=O)[C@H](CCCNC(=N)N)NC(=O)[C@@H]1CCC(=O)N1)C(=O)N1CCC[C@H]1C(=O)N[C@@H](Cc1ccc(Br)cc1)C(=O)O [pE13(4Br-Phe^13)] | potent inducers of apelin receptor internalization |  |  | 
2.6 ± 2.3 | 1.2 ± 0.6 | CSCC[C@H](NC(=O)[C@@H]1CCCN1C(=O)CNC(=O)[C@H](CCCCN)NC(=O)C(C)(C)NC(=O)[C@H](CO)NC(=O)[C@H](CC(C)C)NC(=O)[C@H](CCCNC(=N)N)NC(=O)[C@@H]1CCCN1C(=O)[C@H](CCCNC(=N)N)NC(=O)[C@@H]1CCC(=O)N1)C(=O)N1CCC[C@H]1C(=O)N[C@@H](Cc1ccccc1)C(=O)O [pE13F(Aib^7)] (HELM PEPTIDE1{[Glp].R.P.R.L.S.[Aib].K.G.P.M.P.F}$$$$V2.0; C-terminus assumed) | potent inducers of apelin receptor internalization |  |  | 
4.3 ± 1.8 | 43 ± 12 | CSCC[C@H](NC(=O)[C@@H]1CCCN1C(=O)[C@@H](C)NC(=O)[C@H](CCCCN)NC(=O)[C@H](Cc1c[nH]cn1)NC(=O)[C@H](CO)NC(=O)[C@H](CC(C)C)NC(=O)[C@H](CCCNC(=N)N)NC(=O)[C@@H]1CCCN1C(=O)[C@H](CCCNC(=N)N)NC(=O)[C@@H]1CCC(=O)N1)C(=O)N1CCC[C@H]1C(=O)N[C@@H](Cc1ccccc1)C(=O)O [pE13F(D-Ala^9)] (HELM PEPTIDE1{[Glp].R.P.R.L.S.H.K.[dA].P.M.P.F}$$$$V2.0; C-terminus assumed) | potent inducers of apelin receptor internalization |  |  | 

Continued, molecule first:

SMILES | Ki (rat apelin receptor-EGFP [2]; [5]) [nM] | IC50 (rat apelin receptor-EGFP [3]; [8]) [nM] | induction of apelin receptor internalization (rat apelin receptor-EGFP [4]) | Ki (rat apelin receptor-EGFP [2]; [6]) [nM] | IC50 (rat apelin receptor-EGFP [3]; [7]) [nM] | also measured
CSCC[C@H](NC(=O)[C@@H]1CCCN1C(=O)CNC(=O)[C@H](CCCCN)NC(=O)[C@H](Cc1c[nH]cn1)NC(=O)[C@H](CO)NC(=O)[C@H](CC(C)C)NC(=O)[C@H](CCCNC(=N)N)NC(=O)[C@@H]1CCCN1C(=O)[C@H](CCCNC(=N)N)NC(=O)[C@@H]1CCC(=O)N1)C(=O)N1CCC[C@H]1C(=O)N[C@@H](Cc1ccccc1)C(=O)O [pE13F, reference compound] |  |  |  |  |  | maximal relaxant effect [1]: 62±6%; potency (pD2) of relaxation [1]: 8.00±0.59
CCCC[C@H](NC(=O)[C@@H]1CCCN1C(=O)[C@@H](C)NC(=O)[C@H](CCCCN)NC(=O)C(C)(C)NC(=O)[C@H](CO)NC(=O)[C@@H](CC(C)C)NC(=O)[C@H](CCCNC(=N)N)NC(=O)[C@@H]1CCCN1C(=O)[C@H](CCCNC(=N)N)NC(=O)[C@@H](CCC(N)=O)NC(=O)[C@H](CCCNC(=N)N)NC(=O)[C@H](CCCNC(=N)N)NC(=O)[C@H](Cc1ccccc1)NC(=O)[C@H](CCCCN)NC(C)=O)C(=O)N1CCC[C@H]1C(=O)N[C@@H](Cc1ccc(Br)cc1)C(=O)O [P95, N-Acetyl-Lys-Phe-Arg-Arg-D-Gln-Arg-Pro-Arg-D-Leu-Ser-Aib-Lys-D-Ala-Pro-Nle-Pro-(4-Br)Phe] (HELM PEPTIDE1{[ac].K.F.R.R.[dQ].R.P.R.[dL].S.[Aib].K.[dA].P.[Nle].P.[O=C(O)[C@H](Cc1ccc(Br)cc1)N[*:1]]}$$$$V2.0; C-terminus assumed) | 0.03 |  |  |  |  | affinity improved as compared to K17F by a factor (rat apelin receptor-EGFP [2]): 10; IC50 (rat apelin receptor-EGFP [2]; Table 1): 0.03 ± 0.02 nM; IC50 (rat apelin receptor-EGFP [3]; Table 1, read-out: cAMP production IC50): 0.34 ± 0.36 nM
CCCC[C@H](NC(=O)[C@@H]1CCCN1C(=O)CNC(=O)[C@H](CCCCN)NC(=O)[C@H](Cc1c[nH]cn1)NC(=O)[C@H](CO)NC(=O)[C@H](CC(C)C)NC(=O)[C@H](CCCNC(=N)N)NC(=O)[C@@H]1CCCN1C(=O)[C@H](CCCNC(=N)N)NC(=O)[C@@H]1CCC(=O)N1)C(=O)N1CCC[C@H]1C(=O)N[C@@H](Cc1ccccc1)C(=O)O [pE13F(Nle^11)] |  |  | potent inducers of apelin receptor internalization |  |  | 
CCCCCCCCCCCCCCCC(=O)NCCCC[C@H](N)C(=O)N[C@@H](Cc1ccccc1)C(=O)N[C@@H](CCCNC(=N)N)C(=O)N[C@@H](CCCNC(=N)N)C(=O)N[C@@H](CCC(N)=O)C(=O)N[C@@H](CCCNC(=N)N)C(=O)N1CCC[C@H]1C(=O)N[C@@H](CCCNC(=N)N)C(=O)N[C@@H](CC(C)C)C(=O)N[C@@H](CO)C(=O)N[C@@H](Cc1c[nH]cn1)C(=O)N[C@@H](CCCCN)C(=O)NCC(=O)N1CCC[C@H]1C(=O)N[C@@H](CCSC)C(=O)N1CCC[C@H]1C(=O)N[C@@H](Cc1ccccc1)C(=O)O [JFM V-0220A] |  |  |  | 1.43 ± 0.74 | 2 ± 0.75 | 
CSCC[C@H](NC(=O)[C@@H]1CCCN1C(=O)CNC(=O)[C@H](CCCCN)NC(=O)[C@H](Cc1c[nH]cn1)NC(=O)[C@H](CO)NC(=O)[C@H](CC(C)C)NC(=O)[C@H](CCCNC(=N)N)NC(=O)[C@@H]1CCCN1C(=O)[C@H](CCCNC(=N)N)NC(=O)[C@H](CCC(N)=O)NC(=O)[C@H](CCCNC(=N)N)NC(=O)[C@H](CCCNC(=N)N)NC(=O)[C@H](Cc1ccccc1)NC(=O)[C@H](CCCCN)NC(=O)[C@@H](N)CCCCNC(=O)CCC(F)(F)C(F)(F)C(F)(F)C(F)(F)C(F)(F)C(F)(F)C(F)(F)C(F)(F)F)C(=O)N1CCC[C@H]1C(=O)N[C@@H](Cc1ccccc1)C(=O)O [JFM V-0210/1] |  |  |  | 0.18 ± 0.023 | 3.8 ± 1 | 
CCCCCCCCCCCCCCCC(=O)NCCCC[C@H](N)C(=O)N[C@@H](CCCCN)C(=O)N[C@@H](Cc1ccccc1)C(=O)N[C@@H](CCCNC(=N)N)C(=O)N[C@@H](CCCNC(=N)N)C(=O)N[C@@H](CCC(N)=O)C(=O)N[C@@H](CCCNC(=N)N)C(=O)N1CCC[C@H]1C(=O)N[C@@H](CCCNC(=N)N)C(=O)N[C@@H](CC(C)C)C(=O)N[C@@H](CO)C(=O)N[C@@H](Cc1c[nH]cn1)C(=O)N[C@@H](CCCCN)C(=O)NCC(=O)N1CCC[C@H]1C(=O)N[C@@H](CCSC)C(=O)N1CCC[C@H]1C(=O)N[C@@H](Cc1ccccc1)C(=O)O [JFM V-0210/2] |  |  |  | 1.33 ± 0.15 | 1.4 ± 0.5 | 
CSCC[C@H](NC(=O)[C@@H]1CCCN1C(=O)CNC(=O)[C@H](CCCCN)NC(=O)[C@H](Cc1c[nH]cn1)NC(=O)[C@H](CO)NC(=O)[C@H](CC(C)C)NC(=O)[C@H](CCCNC(=N)N)NC(=O)[C@@H]1CCCN1C(=O)[C@H](CCCNC(=N)N)NC(C)=O)C(=O)N1CCC[C@H]1C(=O)N[C@@H](Cc1ccccc1)C(=O)O [Ac—R12F] | 1.4 ± 0.7 | 2.4 ± 1.4 | potent inducers of apelin receptor internalization |  |  | 
CCCCCCCCCCCCCCCC(=O)N[C@@H](CCCCN)C(=O)N[C@@H](Cc1ccccc1)C(=O)N[C@@H](CCCNC(=N)N)C(=O)N[C@@H](CCCNC(=N)N)C(=O)N[C@@H](CCC(N)=O)C(=O)N[C@@H](CCCNC(=N)N)C(=O)N1CCC[C@H]1C(=O)N[C@@H](CCCNC(=N)N)C(=O)N[C@@H](CC(C)C)C(=O)N[C@@H](CO)C(=O)N[C@@H](Cc1c[nH]cn1)C(=O)N[C@@H](CCCCN)C(=O)NCC(=O)N1CCC[C@H]1C(=O)N[C@@H](CCSC)C(=O)N1CCC[C@H]1C(=O)N[C@@H](Cc1ccccc1)C(=O)O [JFM V-0196A] |  |  |  |  |  | Ki (rat apelin receptor-EGFP [2]; [125I]pE13F binding I (nM), Table 2): 0.76 ± 0.13 nM; IC50 (rat apelin receptor-EGFP [3]; Table 2, read-out: cAMP production IC50): 3.9 ± 1.5 nM; starting peptide remaining after 4 h (in vitro): 100% of star-ring peptide after 4 h
CSCC[C@H](NC(=O)[C@@H]1CCCN1C(=O)CNC(=O)[C@H](CCCCN)NC(=O)[C@H](Cc1c[nH]cn1)NC(=O)[C@H](CO)NC(=O)[C@H](CC(C)C)NC(=O)[C@H](CCCNC(=N)N)NC(=O)[C@@H]1CCCN1C(=O)[C@H](CCCNC(=N)N)NC(=O)[C@H](CCC(N)=O)NC(=O)[C@H](CCCNC(=N)N)NC(=O)[C@H](CCCNC(=N)N)NC(=O)[C@H](Cc1ccccc1)NC(=O)[C@@H](N)CCCCNC(=O)CCC(F)(F)C(F)(F)C(F)(F)C(F)(F)C(F)(F)C(F)(F)C(F)(F)C(F)(F)F)C(=O)N1CCC[C@H]1C(=O)N[C@@H](Cc1ccccc1)C(=O)O [JFM V-0220B] | 0.2 |  |  | 0.16 ± 0.01 | 1 ± 0.4 | 
